Assay results published in ChEMBL document CHEMBL1201862, “PubChem BioAssay data set” (2004).
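Five compound concentrations were applied to cells in 96-well plates for 48 hours; endpoints were derived by simple linear interpolation of the resulting dose-response curve. GI50 = concentration required for 50% inhibition of growth.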 Activity calls are given as the source filed them. No stated cut-off is given here; in the data, active = GI50 up to about 1.1 µM and inactive = higher.

Columns and labels:
Test in all cases: growth of human tumour cells (NCI), 48 h
CAKI-1 = test system: CAKI-1
HCT-15 = test system: HCT-15
HOP-92 = test system: HOP-92
Hs-578T = test system: Hs-578T
IGROV-1 = test system: IGROV-1
K562 = test system: K562
KM12 = test system: KM12
LOX IMVI = test system: LOX IMVI
MDA-MB-435 = test system: MDA-MB-435
NCI-H226 = test system: NCI-H226
NCI-H23 = test system: NCI-H23
OVCAR-8 = test system: OVCAR-8
RXF 393 = test system: RXF 393
SF-268 = test system: SF-268
SK-MEL-2 = test system: SK-MEL-2
SK-MEL-5 = test system: SK-MEL-5
SN12C = test system: SN12C
TK-10 = test system: TK-10
UACC-257 = test system: UACC-257
UO-31 = test system: UO-31

Measured: GI50

O=C(Nc1ccc(Cl)c(Cl)c1)N1N=C2c3ccccc3CCC2C1c1ccc(Cl)cc1 (stereo not given)
inactive: CAKI-1 > 100 µM | HOP-92 > 100 µM | Hs-578T > 100 µM | IGROV-1 3.01 µM | K562 > 100 µM | KM12 > 100 µM | LOX IMVI > 100 µM | MDA-MB-435 > 100 µM | NCI-H226 > 100 µM | NCI-H23 > 100 µM | OVCAR-8 > 100 µM | RXF 393 > 100 µM | SF-268 > 100 µM | SK-MEL-2 > 100 µM | SK-MEL-5 > 100 µM | SN12C > 100 µM | TK-10 > 100 µM | UACC-257 > 100 µM | UO-31 > 100 µM
> 100 µM: HCT-15

Cc1ccc(S(=O)(=O)NC2=NS(=O)(=O)c3cc(C)c(Cl)cc3S2)cc1
> 100 µM: HCT-15
inactive: CAKI-1 > 100 µM | HOP-92 24.4 µM | Hs-578T > 100 µM | IGROV-1 > 100 µM | K562 34.3 µM | KM12 > 100 µM | LOX IMVI 62.2 µM | MDA-MB-435 > 100 µM | NCI-H226 > 100 µM | NCI-H23 > 100 µM | OVCAR-8 > 100 µM | RXF 393 76.7 µM | SF-268 > 100 µM | SK-MEL-2 > 100 µM | SK-MEL-5 > 100 µM | SN12C > 100 µM | TK-10 > 100 µM | UACC-257 > 100 µM | UO-31 > 100 µM

N#CC(C#N)=NNc1ccc2cn[nH]c2c1
inactive: CAKI-1 29.6 µM | HOP-92 37.1 µM | Hs-578T 24.8 µM | IGROV-1 > 100 µM | K562 15.7 µM | KM12 > 100 µM | LOX IMVI 31.4 µM | MDA-MB-435 34.3 µM | NCI-H226 > 100 µM | NCI-H23 19.1 µM | OVCAR-8 51.4 µM | RXF 393 26.6 µM | SF-268 36.3 µM | SK-MEL-2 > 100 µM | SK-MEL-5 74.5 µM | SN12C 40.6 µM | TK-10 26.7 µM | UACC-257 20.4 µM | UO-31 14 µM
83.2 µM: HCT-15

NS(=O)(=O)c1ccc(/N=N/c2nc3nc(O)nc(O)c3[nH]2)cc1
> 100 µM: HCT-15
inactive: CAKI-1 > 100 µM | HOP-92 > 100 µM | Hs-578T > 100 µM | IGROV-1 > 100 µM | K562 > 100 µM | KM12 > 100 µM | LOX IMVI > 100 µM | MDA-MB-435 > 100 µM | NCI-H226 > 100 µM | NCI-H23 > 100 µM | OVCAR-8 > 100 µM | RXF 393 > 100 µM | SF-268 > 100 µM | SK-MEL-2 > 100 µM | SK-MEL-5 > 100 µM | SN12C > 100 µM | TK-10 > 100 µM | UACC-257 > 100 µM | UO-31 > 100 µM

CC/C(=N/O)c1ccc(Br)s1
> 100 µM: HCT-15
inactive: CAKI-1 > 100 µM | HOP-92 40.3 µM | Hs-578T 95.1 µM | IGROV-1 55.6 µM | K562 > 100 µM | KM12 > 100 µM | LOX IMVI 51.9 µM | MDA-MB-435 > 100 µM | NCI-H226 > 100 µM | NCI-H23 > 100 µM | OVCAR-8 > 100 µM | RXF 393 70.3 µM | SF-268 > 100 µM | SK-MEL-2 > 100 µM | SK-MEL-5 > 100 µM | SN12C > 100 µM | TK-10 > 100 µM | UACC-257 > 100 µM | UO-31 58.6 µM

COc1cccc(/C=C\c2ccnc3ccccc23)c1
> 10 µM: HCT-15
inactive: CAKI-1 > 10 µM | HOP-92 > 10 µM | Hs-578T > 10 µM | IGROV-1 > 10 µM | K562 > 10 µM | KM12 > 10 µM | LOX IMVI 9.51 µM | MDA-MB-435 > 10 µM | NCI-H226 > 10 µM | NCI-H23 > 10 µM | OVCAR-8 > 10 µM | RXF 393 > 10 µM | SF-268 > 10 µM | SK-MEL-2 > 10 µM | SK-MEL-5 > 10 µM | SN12C > 10 µM | TK-10 > 10 µM | UACC-257 > 10 µM | UO-31 > 10 µM

COC(=O)c1c(C)nc(C)c(N=O)c1-c1ccccc1C(F)(F)F
20.3 µM: HCT-15
inactive: CAKI-1 11 µM | HOP-92 17.3 µM | Hs-578T 19 µM | IGROV-1 17.7 µM | K562 8.41 µM | KM12 19.1 µM | LOX IMVI 14.7 µM | MDA-MB-435 22.3 µM | NCI-H226 19.4 µM | NCI-H23 20.5 µM | OVCAR-8 17.9 µM | RXF 393 15.3 µM | SF-268 15.8 µM | SK-MEL-2 36.1 µM | SK-MEL-5 26.5 µM | SN12C 21.3 µM | TK-10 13.8 µM | UACC-257 14 µM | UO-31 14.4 µM

CCOC(=O)c1oc2ccc([N+](=O)[O-])c3c2c1CCC3
97.9 µM: HCT-15
inactive: CAKI-1 61.4 µM | HOP-92 17.4 µM | Hs-578T 29.2 µM | IGROV-1 57.9 µM | K562 > 69.7 µM | KM12 > 79.3 µM | LOX IMVI 66.5 µM | MDA-MB-435 > 39.3 µM | NCI-H226 > 88.7 µM | NCI-H23 61.4 µM | OVCAR-8 82.4 µM | RXF 393 26 µM | SF-268 27.2 µM | SK-MEL-2 47.1 µM | SK-MEL-5 69.7 µM | SN12C > 84.3 µM | TK-10 47.6 µM | UACC-257 > 82 µM | UO-31 66.7 µM

Cn1nc2c(c1N)Cc1c(nn(C)c1N)-c1ccccc1-2
> 100 µM: HCT-15
inactive: CAKI-1 > 100 µM | HOP-92 > 100 µM | Hs-578T > 100 µM | IGROV-1 > 100 µM | K562 > 100 µM | KM12 > 100 µM | LOX IMVI > 100 µM | MDA-MB-435 > 100 µM | NCI-H226 > 100 µM | NCI-H23 > 100 µM | OVCAR-8 > 100 µM | RXF 393 > 100 µM | SF-268 > 100 µM | SK-MEL-2 > 100 µM | SK-MEL-5 > 100 µM | SN12C > 100 µM | TK-10 > 100 µM | UACC-257 > 100 µM | UO-31 > 100 µM

NCCNc1ncnc2ccc(Cl)cc12
inactive: CAKI-1 > 100 µM | HOP-92 93.5 µM | Hs-578T > 100 µM | IGROV-1 49.9 µM | K562 > 100 µM | KM12 > 100 µM | LOX IMVI > 100 µM | MDA-MB-435 > 100 µM | NCI-H226 > 100 µM | NCI-H23 > 100 µM | OVCAR-8 74.1 µM | RXF 393 > 100 µM | SF-268 81.1 µM | SK-MEL-2 > 100 µM | SK-MEL-5 > 100 µM | SN12C 88.5 µM | TK-10 28.6 µM | UACC-257 36 µM | UO-31 97.3 µM
> 100 µM: HCT-15
